Results from patent US20250353864A1, “INDAZOLE CONTAINING MACROCYCLES AND THEIR USE” (BLOSSOMHILL THERAPEUTICS, INC., priority 2022, published 2025).

Tests used:
Type in all cases: biochemical
CLK1 = CLK1 (Homo sapiens (Human), UniProt P49759); assay: Inhibition of CLK1 kinase activity evaluated at Nanosyn (ADP-Glo); conditions: ADP-Glo luminescence
Outline: (§1)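 ADP-Glo luminescence (40 min depletion, 10 min detection) quantifies ADP from ATP-initiated phosphorylation of substrate by each CLK isoform in HEPES pH 7.5 buffer, 1% DMSO, assay-specific incubation. %-inhibition calculated against uninhibited and enzyme-free controls.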

EGFR L858R mutant = EGFR L858R mutant (Homo sapiens (Human), UniProt P00533, L858R); assay: HotSpot radiometric kinase assay, EGFR L858R mutant; conditions: 10 μM ATP
Outline: (§2)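 Kinase, substrate and cofactors are mixed in 20 mM Hepes pH 7.5 with 10 mM MgCl2, 1 mM EGTA, 2 mM DTT and 1% DMSO. Compound is added, and about 20 min later ATP/33P-ATP (10 μM final) starts a 120-min room-temperature reaction, which is then spotted onto P81 paper.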

EGFR Δ746-750 mutant = EGFR Δ746-750 mutant (Homo sapiens (Human), UniProt P00533, DEL746-750); assay: HotSpot radiometric kinase assay, EGFR Δ746-750 mutant; conditions: 10 μM ATP
Outline: as §2

CLK4 = CLK4 (Homo sapiens (Human), UniProt Q9HAZ1); assay: Inhibition of CLK4 kinase activity evaluated at Nanosyn (ADP-Glo); conditions: ADP-Glo luminescence
Outline: as §1

EGFR (D770_N771insNPG) = EGFR (D770_N771insNPG) (Homo sapiens (Human), UniProt P00533, INS770NPG); assay: HotSpot radiometric kinase assay, EGFR (D770_N771insNPG); conditions: 10 μM ATP, read-out: EGFR (Δ770_N771insNPG) IC50
Outline: as §2

EGFR L858R/T790M mutant = EGFR L858R/T790M mutant (Homo sapiens (Human), UniProt P00533, L858R/T790M); assay: HotSpot radiometric kinase assay, EGFR L858R/T790M mutant; conditions: 10 μM ATP
Outline: as §2

EGFR WT = EGFR WT (Homo sapiens (Human), UniProt P00533); assay: HotSpot radiometric kinase assay (Reaction Biology), EGFR WT; conditions: 10 μM ATP
Outline: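 Radiometric filter-binding read-out: incorporated 33P was retained on P81 ion-exchange paper after washing away unbound phosphate. Reactions ran 120 min at room temperature with 10 μM final ATP, following ~20 min compound preincubation in Hepes pH 7.5 buffer containing 1% DMSO. IC50 from fitted curves.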

CLK3 = CLK3 (Homo sapiens (Human), UniProt P49761); assay: Inhibition of CLK3 kinase activity evaluated at Nanosyn (ADP-Glo); conditions: ADP-Glo luminescence
Outline: as §1

CLK2 = CLK2 (Homo sapiens (Human), UniProt P49760); assay: Inhibition of CLK2 kinase activity evaluated at Nanosyn (ADP-Glo); conditions: ADP-Glo luminescence
Outline: as §1

[1] = target: EGFR Δ746-750/C797S mutant (Homo sapiens (Human), UniProt P00533, C797S/DEL746-750); assay: HotSpot radiometric kinase assay, EGFR Δ746-750/C797S mutant; conditions: 10 μM ATP
Outline: as §2

[2] = target: EGFR L858R/T790M/C797S mutant (Homo sapiens (Human), UniProt P00533, C797S/L858R/T790M); assay: HotSpot radiometric kinase assay, EGFR L858R/T790M/C797S mutant; conditions: 10 μM ATP
Outline: as §2

Chain of EGFR (D770_N771insNPG) (P00533 other isoform, or with tags, fused parts or gaps del 1-668/ins NPG behind 770 limits assumed): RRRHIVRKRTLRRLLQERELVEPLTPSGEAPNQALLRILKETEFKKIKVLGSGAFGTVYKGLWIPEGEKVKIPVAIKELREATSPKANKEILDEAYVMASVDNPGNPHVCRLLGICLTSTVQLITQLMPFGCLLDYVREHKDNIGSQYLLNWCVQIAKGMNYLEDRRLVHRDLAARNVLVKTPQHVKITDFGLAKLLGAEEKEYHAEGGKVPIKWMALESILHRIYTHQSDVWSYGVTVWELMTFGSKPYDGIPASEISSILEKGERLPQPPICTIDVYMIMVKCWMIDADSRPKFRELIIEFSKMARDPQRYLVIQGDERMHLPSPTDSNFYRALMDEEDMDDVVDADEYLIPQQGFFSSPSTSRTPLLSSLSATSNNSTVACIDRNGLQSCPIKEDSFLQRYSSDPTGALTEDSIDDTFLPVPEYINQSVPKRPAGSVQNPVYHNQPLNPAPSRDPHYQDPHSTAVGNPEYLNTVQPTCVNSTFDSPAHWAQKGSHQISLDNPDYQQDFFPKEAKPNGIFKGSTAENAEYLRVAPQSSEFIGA
Chain of EGFR L858R/T790M/C797S mutant (P00533 25-1210 T790M/C797S/L858R): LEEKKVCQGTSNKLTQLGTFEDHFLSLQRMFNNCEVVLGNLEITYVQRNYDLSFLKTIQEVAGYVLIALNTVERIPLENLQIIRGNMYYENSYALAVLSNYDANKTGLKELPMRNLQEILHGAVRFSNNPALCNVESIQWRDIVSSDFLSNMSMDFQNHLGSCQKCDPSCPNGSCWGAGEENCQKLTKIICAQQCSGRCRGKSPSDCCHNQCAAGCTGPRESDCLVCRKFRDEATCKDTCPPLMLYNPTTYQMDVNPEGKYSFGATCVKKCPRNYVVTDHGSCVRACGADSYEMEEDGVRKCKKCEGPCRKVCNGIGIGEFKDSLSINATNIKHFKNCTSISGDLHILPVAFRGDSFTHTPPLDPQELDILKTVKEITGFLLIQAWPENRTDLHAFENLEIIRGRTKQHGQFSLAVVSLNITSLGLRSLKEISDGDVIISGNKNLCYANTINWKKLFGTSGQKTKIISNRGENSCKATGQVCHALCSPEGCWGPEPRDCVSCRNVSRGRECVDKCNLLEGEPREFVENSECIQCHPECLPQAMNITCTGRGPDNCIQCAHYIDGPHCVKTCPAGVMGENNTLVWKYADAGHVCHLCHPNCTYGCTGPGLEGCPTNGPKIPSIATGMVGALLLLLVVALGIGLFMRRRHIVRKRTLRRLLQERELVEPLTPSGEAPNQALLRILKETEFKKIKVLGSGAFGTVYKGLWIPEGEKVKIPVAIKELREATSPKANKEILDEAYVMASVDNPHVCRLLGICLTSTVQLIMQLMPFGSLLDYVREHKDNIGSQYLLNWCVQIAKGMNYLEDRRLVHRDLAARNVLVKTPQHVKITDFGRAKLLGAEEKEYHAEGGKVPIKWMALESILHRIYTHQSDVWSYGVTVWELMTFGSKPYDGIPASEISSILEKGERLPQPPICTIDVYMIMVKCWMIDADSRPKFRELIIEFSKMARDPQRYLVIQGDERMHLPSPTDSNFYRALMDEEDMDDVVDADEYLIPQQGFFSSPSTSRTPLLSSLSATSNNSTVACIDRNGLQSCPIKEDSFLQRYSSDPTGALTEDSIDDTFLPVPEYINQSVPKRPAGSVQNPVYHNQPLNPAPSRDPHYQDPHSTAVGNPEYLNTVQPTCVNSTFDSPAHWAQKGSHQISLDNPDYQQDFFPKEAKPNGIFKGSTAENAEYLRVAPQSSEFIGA
Chain of EGFR Δ746-750/C797S mutant (P00533 other isoform, or with tags, fused parts or gaps C797S/del 1-668/del 746-750 limits assumed): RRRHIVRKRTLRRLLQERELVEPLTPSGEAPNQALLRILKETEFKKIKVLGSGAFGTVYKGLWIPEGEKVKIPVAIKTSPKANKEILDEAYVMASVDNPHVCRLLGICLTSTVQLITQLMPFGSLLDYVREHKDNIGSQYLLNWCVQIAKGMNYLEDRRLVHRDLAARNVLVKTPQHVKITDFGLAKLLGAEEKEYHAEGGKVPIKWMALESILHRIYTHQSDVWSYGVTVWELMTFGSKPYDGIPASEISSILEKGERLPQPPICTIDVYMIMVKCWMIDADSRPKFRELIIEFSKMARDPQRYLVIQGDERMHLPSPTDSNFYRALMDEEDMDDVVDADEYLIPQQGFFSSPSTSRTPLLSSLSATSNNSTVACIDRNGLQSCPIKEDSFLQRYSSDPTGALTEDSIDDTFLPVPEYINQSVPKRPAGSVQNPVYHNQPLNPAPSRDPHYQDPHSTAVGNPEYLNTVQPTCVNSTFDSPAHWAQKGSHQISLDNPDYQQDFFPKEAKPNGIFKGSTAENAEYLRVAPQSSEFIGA
Chain of EGFR Δ746-750 mutant (P00533 other isoform, or with tags, fused parts or gaps del 1-668/del 746-750 limits assumed): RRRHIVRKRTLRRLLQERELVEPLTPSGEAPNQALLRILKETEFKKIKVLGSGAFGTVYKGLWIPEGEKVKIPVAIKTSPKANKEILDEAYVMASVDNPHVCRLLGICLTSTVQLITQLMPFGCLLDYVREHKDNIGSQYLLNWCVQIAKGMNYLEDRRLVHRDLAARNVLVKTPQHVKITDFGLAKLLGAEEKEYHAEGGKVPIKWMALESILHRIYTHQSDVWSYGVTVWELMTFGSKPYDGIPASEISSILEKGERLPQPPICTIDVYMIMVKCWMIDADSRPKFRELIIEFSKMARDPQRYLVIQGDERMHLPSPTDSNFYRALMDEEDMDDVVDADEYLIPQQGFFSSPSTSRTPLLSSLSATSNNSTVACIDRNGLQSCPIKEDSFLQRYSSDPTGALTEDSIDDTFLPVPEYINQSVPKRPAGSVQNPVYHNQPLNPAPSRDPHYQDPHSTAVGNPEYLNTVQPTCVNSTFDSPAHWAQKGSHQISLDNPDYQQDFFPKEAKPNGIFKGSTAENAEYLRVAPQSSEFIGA
Chain of CLK1 (P49759 whole entry, canonical isoform): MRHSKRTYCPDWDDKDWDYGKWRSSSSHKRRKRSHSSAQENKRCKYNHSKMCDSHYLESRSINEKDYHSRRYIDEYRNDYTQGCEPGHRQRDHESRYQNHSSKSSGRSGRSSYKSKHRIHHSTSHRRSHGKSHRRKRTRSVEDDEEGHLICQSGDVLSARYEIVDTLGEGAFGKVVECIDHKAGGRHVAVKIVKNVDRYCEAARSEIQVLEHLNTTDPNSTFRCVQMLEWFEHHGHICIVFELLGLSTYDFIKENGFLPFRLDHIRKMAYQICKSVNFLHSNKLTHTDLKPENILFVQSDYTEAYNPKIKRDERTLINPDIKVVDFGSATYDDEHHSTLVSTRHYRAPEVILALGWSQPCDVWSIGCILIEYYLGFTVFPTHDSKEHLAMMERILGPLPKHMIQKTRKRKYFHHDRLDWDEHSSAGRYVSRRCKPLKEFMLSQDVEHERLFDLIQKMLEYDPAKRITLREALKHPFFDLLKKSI
Chain of CLK2 (P49760 whole entry): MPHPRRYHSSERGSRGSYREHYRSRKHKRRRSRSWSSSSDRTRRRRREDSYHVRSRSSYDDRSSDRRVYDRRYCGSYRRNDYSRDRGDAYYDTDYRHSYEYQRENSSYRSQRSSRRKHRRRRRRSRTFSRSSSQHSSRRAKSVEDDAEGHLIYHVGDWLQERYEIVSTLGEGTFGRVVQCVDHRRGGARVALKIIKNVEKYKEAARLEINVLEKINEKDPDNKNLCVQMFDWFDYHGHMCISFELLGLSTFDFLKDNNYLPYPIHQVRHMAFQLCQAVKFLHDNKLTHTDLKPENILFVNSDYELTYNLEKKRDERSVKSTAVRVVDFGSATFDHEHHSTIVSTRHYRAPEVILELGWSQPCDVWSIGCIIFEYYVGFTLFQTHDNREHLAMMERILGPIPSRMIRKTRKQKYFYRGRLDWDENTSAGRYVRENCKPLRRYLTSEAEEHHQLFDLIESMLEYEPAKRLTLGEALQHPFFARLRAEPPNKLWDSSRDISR
Chain of EGFR L858R mutant (P00533 25-1210 L858R): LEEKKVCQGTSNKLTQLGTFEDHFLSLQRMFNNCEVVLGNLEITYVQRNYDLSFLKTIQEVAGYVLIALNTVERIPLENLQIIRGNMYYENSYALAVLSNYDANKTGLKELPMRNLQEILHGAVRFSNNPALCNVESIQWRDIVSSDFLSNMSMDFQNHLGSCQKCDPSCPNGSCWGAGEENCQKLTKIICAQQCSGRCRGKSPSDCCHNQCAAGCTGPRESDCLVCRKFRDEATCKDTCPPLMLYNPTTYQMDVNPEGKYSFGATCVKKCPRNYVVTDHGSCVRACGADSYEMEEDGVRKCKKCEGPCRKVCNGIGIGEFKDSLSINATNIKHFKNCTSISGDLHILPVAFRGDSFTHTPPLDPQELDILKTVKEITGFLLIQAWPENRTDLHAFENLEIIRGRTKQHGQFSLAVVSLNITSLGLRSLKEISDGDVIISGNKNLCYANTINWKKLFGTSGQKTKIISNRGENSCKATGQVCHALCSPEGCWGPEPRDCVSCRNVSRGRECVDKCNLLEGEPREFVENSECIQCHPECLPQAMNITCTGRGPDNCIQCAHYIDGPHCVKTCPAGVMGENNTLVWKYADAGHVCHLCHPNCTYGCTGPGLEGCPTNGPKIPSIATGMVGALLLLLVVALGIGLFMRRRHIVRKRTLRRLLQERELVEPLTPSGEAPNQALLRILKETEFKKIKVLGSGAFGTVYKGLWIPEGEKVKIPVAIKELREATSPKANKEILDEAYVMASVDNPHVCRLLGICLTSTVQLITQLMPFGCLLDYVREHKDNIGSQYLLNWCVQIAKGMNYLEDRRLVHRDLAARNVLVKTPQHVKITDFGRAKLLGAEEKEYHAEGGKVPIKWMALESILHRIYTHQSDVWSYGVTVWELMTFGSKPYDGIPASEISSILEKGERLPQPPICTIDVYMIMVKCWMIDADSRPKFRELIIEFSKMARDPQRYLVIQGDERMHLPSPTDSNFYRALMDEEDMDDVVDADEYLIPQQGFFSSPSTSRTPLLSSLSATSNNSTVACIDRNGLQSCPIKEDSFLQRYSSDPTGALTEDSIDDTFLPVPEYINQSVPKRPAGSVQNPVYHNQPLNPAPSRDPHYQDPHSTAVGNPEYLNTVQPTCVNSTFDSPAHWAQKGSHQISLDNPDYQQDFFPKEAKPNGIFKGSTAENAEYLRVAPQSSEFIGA

IC50 (CLK1) [nM]	IC50 (EGFR L858R mutant) [nM]	IC50 (EGFR Δ746-750 mutant) [nM]	IC50 (CLK4) [nM]	IC50 (EGFR (D770_N771insNPG)) [nM]	IC50 (EGFR L858R/T790M mutant) [nM]	IC50 (EGFR WT) [nM]	IC50 (CLK3) [nM]	IC50 (CLK2) [nM]	IC50 [1] [nM]	IC50 [2] [nM]	Compound
0.47	0.38	0.56	1.08	1.56	0.6	0.67	59.1	0.23	0.75	1.78	CCOc1nn(CCO)c2c1/C=C/c1n[nH]c3ccc(cc13)-c1cnn(C)c1O[C@@H](C)CN(CC)C2 [Example 177, 2-[(10S,17E)-16-ethoxy-12-ethyl-8,10-dimethyl-2,8,10,11,12,13-hexahydro-14H-3,5-ethenotripyrazolo[3,4-f:3′,4′-j:4″,3″-n][1,4]oxazacyclopentadecin-14-yl]ethan-1-ol]
0.82	40.1	8.48	1.5	98.3	4.98	94.5	104	0.49	7.12	1.67	CCN1Cc2c(c(OC(C)C)nn2CC(C)(C)O)/C=C/c2n[nH]c3ccc(cc23)-c2cnn(C)c2O[C@@H](C)C1 [Example 262, 1-{(10S,17E)-12-ethyl-8,10-dimethyl-16-[(propan-2-yl)oxy]-2,8,10,11,12,13-hexahydro-14H-3,5-ethenotripyrazolo[3,4-f:3′,4′-j:4″,3″-n][1,4]oxazacyclopentadecin-14-yl}-2-methylpropan-2-ol]
0.11	47.4	30.5	0.25	523	1.4	238	784	0.07	33.5	0.9	C[C@H]1CN(C)Cc2c(c(OCC(F)(F)F)nn2C)/C=C/c2n[nH]c3ccc(cc23)-c2cnn(C)c2O1 [Example 162, (10S,17E)-8,10,12,14-tetramethyl-16-(2,2,2-trifluoroethoxy)-2,10,11,12,13,14-hexahydro-8H-3,5-ethenotripyrazolo[3,4-f:3′,4′-j:4″,3″-n][1,4]oxazacyclopentadecine]
0.47	2.01	3.24	1.13	36.1	0.48	19.3	346	0.49	1.6	1.26	CCn1ncc2c1O[C@@H](C)CN(C)Cc1c(c(OC(C)C)nn1CCO)/C=C/c1n[nH]c3ccc-2cc13 [Example 169, 2-{(10S,17E)-8-ethyl-10,12-dimethyl-16-[(propan-2-yl)oxy]-2,8,10,11,12,13-hexahydro-14H-3,5-ethenotripyrazolo[3,4-f:3′,4′-j:4″,3″- n][1,4]oxazacyclopentadecin-14-yl}ethan-1-ol]
5.27	52.3	16.9	5.31	139	0.57	154	237	7.14	3.87	0.42	CC(C)Oc1nn(CCO)c2c1/C=C/c1n[nH]c3ccc(cc13)-c1cnn(C)c1O[C@H](C)CN(C1CC1)C2 [Example 212, 2-{(10R,17E)-12-cyclopropyl-8,10-dimethyl-16-[(propan-2-yl)oxy]-2,8,10,11,12,13-hexahydro-14H-3,5-ethenotripyrazolo[3,4-f:3′,4′-j:4″,3″- n][1,4]oxazacyclopentadecin-14-yl}ethan-1-ol]
1.67	1.69	0.76	3.69	43.5	0.52	3.33	477	1.72	0.74	1.46	CCOc1nn(C)c2c1/C=C/c1n[nH]c3cc(F)c(cc13)-c1cnn(C)c1O[C@@H](C)CN(CC)C2 [Example 206, (10S,17E)-16-ethoxy-12-ethyl-19-fluoro-8,10,14-trimethyl-2,10,11,12,13,14-hexahydro-8H-3,5-ethenotripyrazolo[3,4-f:3′,4′-j:4″,3″-n][1,4]oxazacyclopentadecine]
0.32	0.6	2.1	0.59	6.61	0.48	1.84	64.7	0.08	0.69	1.34	CCOc1nn(CCO)c2c1/C=C/c1n[nH]c3cc(F)c(cc13)-c1cnn(C)c1O[C@@H](C)CN(C)C2 [Example 172, 2-[(10S,17E)-16-ethoxy-19-fluoro-8,10,12-trimethyl-2,8,10,11,12,13-hexahydro-14H-3,5-ethenotripyrazolo[3,4-f:3′,4′-j:4″,3″- n][1,4]oxazacyclopentadecin-14-yl]ethan-1-ol]
0.85	7.07	4.07	2.11	102	0.61	42.6	30	0.28	3.12	0.34	CC(C)Oc1nn(CCO)c2c1/C=C/c1n[nH]c3ccc(cc13)-c1cnn(C)c1O[C@@H](C)CN(C)[C@@H]2C [Example 223]
0.39	16.7	33.4	0.59	95.3	3.23	220	1000	0.75	20.2	1.76	CSCn1ncc2c1O[C@@H](C)CN(C(C)C)Cc1c(c(C)nn1C)/C=C/c1n[nH]c3ccc-2cc13 [Example 164, (10S,17E)-10,14,16-trimethyl-8-[(methylsulfanyl)methyl]-12-(propan-2-yl)-2,10,11,12,13,14-hexahydro-8H-3,5-ethenotripyrazolo[3,4-f:3′,4′-j:4″,3″-n][1,4]oxazacyclopentadecine]
0.23	0.1	0.17	0.46	0.91	0.11	0.38	20.9	0.12	0.92	0.98	Cc1nn(CCO)c2c1/C=C/c1n[nH]c3ccc(cc13)-c1cnn(C)c1O[C@@H](C)CN(C(C)C)C2 [Example 114, 2-[(10S,17E)-8,10,16-trimethyl-12-(propan-2-yl)-2,8,10,11,12,13-hexahydro-14H-3,5-ethenotripyrazolo[3,4-f:3′,4′-j:4″,3″- n][1,4]oxazacyclopentadecin-14-yl]ethan-1-ol]
3.44	11.9	20.6	4.31	175	43.6	138	1000	2.81	4.99	7.49	Cc1nn(CCO)c2c1/C=C/c1n[nH]c3cc(Cl)c(cc13)-c1cnn(C)c1O[C@@H](C)CN(C)C2 [Example 125, 2-[(10S,17E)-19-chloro-8,10,12,16-tetramethyl-2,8,10,11,12,13-hexahydro-14H-3,5-ethenotripyrazolo[3,4-f:3′,4′-j:4″,3″-n][1,4]oxazacyclopentadecin-14-yl]ethan-1-ol]
0.64	3.97	1.28	1.31	18.2	0.75	6.94	32.7	0.71	1.79	0.5	CCN1Cc2c(c(OC(C)C)nn2CC(C)=O)/C=C/c2n[nH]c3ccc(cc23)-c2cnn(C)c2O[C@@H](C)C1 [Example 263, 1-{(10S,17E)-12-ethyl-8,10-dimethyl-16-[(propan-2-yl)oxy]-2,8,10,11.12,13-hexahydro-14H-3,5-ethenotripyrazolo[3,4-f:3′,4′-j:4″,3″-n][1,4]oxazacyclopentadecin-14-yl}propan-2-one]
21.9	25.2	12.2	34	481	25.9	52.7	1000	8.6	44.4	10.6	CCOc1nn([C@@H](C)CO)c2c1/C=C/c1n[nH]c3cc(F)c(cc13)-c1cnn(C)c1OC[C@H](C)N(C(C)C)C2 [Example 228, (2S)-2-[(11S,17E)-16-ethoxy-19-fluoro-8,11-dimethyl-12-(propan-2-yl)-2,8,10,11,12,13-hexahydro-14H-3,5-ethenotripyrazolo[3,4-f:3′,4′-j:4″,3″- n][1,4]oxazacyclopentadecin-14-yl]propan-1-ol]
